Data published in patent publication US11844794B2, “Pharmaceutical compositions” (ADEPTIO PHARMACEUTICALS LIMITED, priority 2017, dated 2023).

Experiments:
[1] = thermal gravimetric analysis (TGA) / thermal stability
Method: Differential scanning calorimetry (DSC) was carried out on the sample “as is” using a Mettler DSC1 instrument. The sample was weighed I an aluminium pan, covered with a pierced lid, and then crimped and analysed from 30-300° C. at 10° C./minute.
Thermal gravimetric analysis was performed on the sample “as is” using a Mettler 851^e TGA instrument. The sample was weighed in an alumina crucible and analysed from 30-300° C. at 10° C./minute.

[2] = solid form stability in slurry / polymorphism by XRPD; type: physicochemical
[3] = tested on: amphetamine-induced rats; assay: amphetamine-induced locomotor activity, open field test; type: in vivo, rat
Method: (§1) All animal experiments were carried out according to the National Institute of Health (NIH) guidelines for the care and use of laboratory animals, and approved by the National Animal Experiment Board, Finland. Male CD (Charles River Laboratories, Germany) at weight range of 200-250 g (165-200 g upon arrival) were used for the experiments. Animals were housed at a standard temperature (22±1° C.) and in a light-controlled environment (lights on from 7 am to 8 pm) with ad libitum access to food and water.
(§2) Locomotor activity of the rats was tested in open field arena. The open field test was performed during the rat light cycle and under a normal lighting evenly distributed to the test chambers. The paths of the rats were recorded by activity monitor (Med. Associates Inc.).
(§3) Dosing the vehicle, vehicle-amphetamine, (+)-α-DHTBZ or risperidone was done prior to LMA test. The rats were placed in the centre of the arena, and the path was recorded for 60 minutes.
Animals were grouped as follows: • Group 1: 10 rats treated with Vehicle (t=0 min) and Vehicle (t=30 min) • Group 2: 10 rats treated with Vehicle (t=0 min) and Amphetamine (t=30 min) • Group 3: 10 rats treated with (+)-α-DHTBZ 0.5 mg/kg (t=0 min) and Amphetamine (t=30 min) • Group 4: 10 rats treated with (+)-α-DHTBZ 1 mg/kg (t=0 min) and Amphetamine (t=30 min) • Group 5: 10 rats treated with (+)-α-DHTBZ 1.5 mg/kg (t=0 min) and Amphetamine (t=30 min) • Group 6: 10 rats treated with (+)-α-DHTBZ 2 mg/kg (t=0 min) and Amphetamine (t=30 min) • Group 7: 10 rats treated with risperidone 1 mg/kg (t=0 min) and Amphetamine (t=30 min)
(§4) Rats dosed with either vehicle, (+)-α-DHTBZ 0.5 mg/kg, (+)-α-DHTBZ 1 mg/kg, (+)-α-DHTBZ 1.5 mg/kg, (+)-α-DHTBZ 2 mg/kg or Risperidone 1 mg/kg were subjected to LMA testing first for 30 min and then for 60 minutes after vehicle or amphetamine challenge. Resulting locomotor activity was evaluated in 3 min bins and as a total over the testing period.
as §4, with “stereotypic” for “locomotor”, “period. […]” for “period.”

[4] = tested on: non-amphetamine induced rats; assay: locomotor activity in rats without amphetamine induction, open field test; type: in vivo, rat; conditions: Study 3, non-induced rats, 2.5 mg/kg or 5 mg/kg
Method: as §1, §2, §3
Animals were grouped as follows: • Group 1: 10 rats treated with Vehicle • Group 2: 10 rats treated with (+)-α-DHTBZ 2.5 mg/kg • Group 3: 10 rats treated with (+)-α-DHTBZ 5 mg/kg • Group 4: 10 rats treated with risperidone 1 mg/kg

[5] = Study 1, all the tested doses (0.5, 1, 1.5 and 2 mg/kg)

| SMILES | TGA weight loss ([1]; below 150° C.) | thermal stability ([1]; from DSC and TGA) | polymorphism [2] | total stereotypic behaviour compared to vehicle-vehicle group ([3]; Study 1, 0.5 mg/kg plus amphetamine, male CD rats) | total stereotypic behaviour compared to vehicle-amphetamine group ([3]; Study 1, 0.5 mg/kg, male CD rats) | total stereotypic behaviour compared to vehicle-amphetamine group ([3]; Study 1, 1 mg/kg, male CD rats) | total stereotypic behaviour compared to vehicle-vehicle group ([3]; Study 1, 1.5 mg/kg plus amphetamine, male CD rats) | total stereotypic behaviour compared to vehicle-amphetamine group ([3]; Study 1, 1.5 mg/kg, male CD rats) | total stereotypic behaviour compared to vehicle-amphetamine group ([3]; Study 1, 2 mg/kg, male CD rats) | locomotor activity compared to vehicle-amphetamine group [3, 5] | stereotypic behaviour compared to vehicle-amphetamine group [3, 5] | effect suggested by both measured parameters ([3]; Study 1, locomotor activity and stereotypic behaviour) | total stereotypic behaviour compared to vehicle-amphetamine group ([3]; Study 2, 0.1 mg/kg, male CD rats) | total stereotypic behaviour compared to vehicle-amphetamine group ([3]; Study 2, 0.25 mg/kg, male CD rats) | total distance travelled compared to vehicle-amphetamine group ([3]; Study 2, 0.25 mg/kg, male CD rats, listed as (+)-α-DHTBZ) | stereotypic behaviour compared to vehicle-amphetamine group ([3]; Study 2, both the tested doses (0.1 and 0.25 mg/kg)) | stereotypic behaviour versus vehicle [4] | total movement versus vehicle [4] |
| --- | --- | --- | --- | --- | --- | --- | --- | --- | --- | --- | --- | --- | --- | --- | --- | --- | --- | --- |
| COc1cc2c(cc1OC)[C@H]1C[C@@H](O)[C@H](CC(C)C)CN1CC2.O=C(O)CCC(=O)O [(+)-α-dihydrotetrabenazine succinate] | No weight loss | good thermal stability | no evidence of polymorphism |  |  |  |  |  |  |  |  |  |  |  |  |  |  |  |
| COc1cc2c(cc1OC)[C@H]1C[C@@H](O)[C@H](CC(C)C)CN1CC2 [(+)-α-dihydrotetrabenazine, (2R,3R,11bR)-3-isobutyl-9,10-dimethoxy-1,3,4,6,7,11b-hexahydro-2H-pyrido[2,1,a]isoquinolin-2-01] |  |  |  | significantly different | significantly different | significantly different | significantly different | significantly different | significantly different | lower locomotor activity | reduced stereotypic behaviour | sedative effect similar to risperidone | significantly different | significantly different | lower locomotor activity | reduced stereotypic behaviour | comparable | comparable |
